Measurements: patent US11702404B2, “GLP-1R modulating compounds” (priority 2019, dated 2023)
Read-outs that look alike come from different tables or passages of the source.

What was measured:
[1] = target: GLP-1R (Homo sapiens, UniProt P43220); assay: GLP-1R activation: cAMP increase in CHO cells stably expressing GLP-1R; assay type: cell-based; settings: read-out: EC50
[2] = Microsomal stability, human liver microsomes (predicted hepatic clearance); settings: predicted from in vitro microsomal stability data
[3] = cAMP increase, CHO cells stably expressing GLP-1R, 10 point dose response, 30 minutes incubation

Chain of GLP-1R (P43220 24-463): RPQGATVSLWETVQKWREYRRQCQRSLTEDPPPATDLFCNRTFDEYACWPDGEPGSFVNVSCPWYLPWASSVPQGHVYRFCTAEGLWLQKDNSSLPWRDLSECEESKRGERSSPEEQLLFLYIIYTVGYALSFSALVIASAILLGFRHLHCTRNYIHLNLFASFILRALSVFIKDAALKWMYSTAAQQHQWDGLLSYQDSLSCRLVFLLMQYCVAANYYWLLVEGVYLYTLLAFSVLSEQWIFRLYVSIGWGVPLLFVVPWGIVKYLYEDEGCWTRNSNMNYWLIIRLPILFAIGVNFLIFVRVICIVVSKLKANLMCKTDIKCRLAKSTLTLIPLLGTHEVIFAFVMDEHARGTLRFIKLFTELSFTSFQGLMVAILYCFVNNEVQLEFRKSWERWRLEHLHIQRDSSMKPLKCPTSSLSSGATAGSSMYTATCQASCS

Row | SMILES | EC50 [1, 3] [nM] | Predicted Hepatic Clearance (Pred. Cl.) [2] [mL/min/kg] | EC50 [1] [nM]
1 | COCCn1c(C2OCCc3cc(-c4cccc(OCc5ccc(C#N)cc5F)n4)ccc32)nc2ccc(C(=O)O)cc21 (single isomer, unassigned) [Example 49, 2-(6-(6-((4-cyano-2-fluorobenzyl)oxy)pyridin-2-yl)isochroman-1-yl)-1-(2-methoxyethyl)-1H-benzo[d]imidazole-6-carboxylic acid] | > 1000 | 13 | 
2 | N#Cc1ccc(COc2cccc(-c3ccc(Cc4nc5ccc(C(=O)O)cc5n4CC4CCS4(=O)=O)c(F)c3)n2)c(F)c1 (single isomer, unassigned) [Example 69, 2-(4-(6-((4-cyano-2-fluorobenzyl)oxy)pyridin-2-yl)-2-fluorobenzyl)-1-((1,1-dioxidothietan-2-yl)methyl)-1H-benzo[d]imidazole-6-carboxylic acid] | 12 | <1.83 | 
3 | N#Cc1ccc(COc2cccc(-c3ccc(Cc4nc5ccc(C(=O)O)cc5n4CC4CCS4(=O)=O)c(F)c3)n2)c(F)c1 (single isomer, unassigned) [Example 70, 2-(4-(6-((4-cyano-2-fluorobenzyl)oxy)pyridin-2-yl)-2-fluorobenzyl)-1-((1,1-dioxidothietan-2-yl)methyl)-1H-benzo[d]imidazole-6-carboxylic acid] | 64 | 2.17 | 
4 | COCCNC(=O)C(Cn1c(Cc2ccc(-c3cccc(OCc4ccc(C#N)cc4F)n3)cc2F)nc2ccc(C(=O)O)cc21)OC (single isomer, unassigned) [Example 328, 2-(4-(6-((4-cyano-2-fluorobenzyl)oxy)pyridin-2-yl)-2-fluorobenzyl)-1-(2-methoxy-3-((2-methoxyethyl)amino)-3-oxopropyl)-1H-benzo[d]imidazole-6-carboxylic acid] | 26.5 | 11 | 
5 | COC(Cn1c(Cc2ccc(-c3cccc(OCc4ccc(C#N)cc4F)n3)cc2F)nc2ccc(C(=O)O)cc21)C(=O)Nc1nccs1 (single isomer, unassigned) [Example 329, 2-(4-(6-((4-cyano-2-fluorobenzyl)oxy)pyridin-2-yl)-2-fluorobenzyl)-1-(2-methoxy-3-oxo-3-(thiazol-2-ylamino)propyl)-1H-benzo[d]imidazole-6-carboxylic acid] | 286 | 7.83 | 
6 | CNC(=O)C(Cn1c(Cc2ccc(-c3cccc(OCc4ccc(C#N)cc4F)n3)cc2F)nc2ccc(C(=O)O)cc21)OC (single isomer, unassigned) [Example 330, 2-(4-(6-((4-cyano-2-fluorobenzyl)oxy)pyridin-2-yl)-2-fluorobenzyl)-1-(2-methoxy-3-(methylamino)-3-oxopropyl)-1H-benzo[d]imidazole-6-carboxylic acid] | 17.2 | 3.17 | 
7 | COC(Cn1c(Cc2ccc(-c3cccc(OCc4ccc(C#N)cc4F)n3)cc2F)nc2ccc(C(=O)O)cc21)C(=O)O (single isomer, unassigned) [Example 332, 1-(2-carboxy-2-methoxyethyl)-2-(4-(6-((4-cyano-2-fluorobenzyl)oxy)pyridin-2-yl)-2-fluorobenzyl)-1H-benzo[d]imidazole-6-carboxylic acid] | 120 | <1.83 | 
8 | COC(Cn1c(Cc2ccc(-c3cccc(OCc4ccc(C#N)cc4F)n3)cc2F)nc2ccc(C(=O)O)cc21)C(=O)O (single isomer, unassigned) [Example 333, 1-(2-carboxy-2-methoxyethyl)-2-(4-(6-((4-cyano-2-fluorobenzyl)oxy)pyridin-2-yl)-2-fluorobenzyl)-1H-benzo[d]imidazole-6-carboxylic acid] | 624 | <1.83 | 
9 | COC(Cn1c(Cc2ccc(-c3cccc(OCc4ccc(C#N)cc4F)n3)cc2F)nc2ccc(C(=O)O)cc21)C(N)=O (single isomer, unassigned) [Example 334, 1-(3-amino-2-methoxy-3-oxopropyl)-2-(4-(6-((4-cyano-2-fluorobenzyl)oxy)pyridin-2-yl)-2-fluorobenzyl)-1H-benzo[d]imidazole-6-carboxylic acid] | 7.11 | 3.3 | 
10 | COCCNC(=O)C(Cn1c(Cc2ccc(-c3cccc(OCc4ccc(C#N)cc4F)n3)cc2F)nc2ccc(C(=O)O)cc21)OC (single isomer, unassigned) [Example 335, 2-(4-(6-((4-cyano-2-fluorobenzyl)oxy)pyridin-2-yl)-2-fluorobenzyl)-1-(2-methoxy-3-((2-methoxyethyl)amino)-3-oxopropyl)-1H-benzo[d]imidazole-6-carboxylic acid] | 139 | 4.83 | 
11 | CNC(=O)C(Cn1c(Cc2ccc(-c3cccc(OCc4ccc(C#N)cc4F)n3)cc2F)nc2ccc(C(=O)O)cc21)OC (single isomer, unassigned) [Example 336, 2-(4-(6-((4-cyano-2-fluorobenzyl)oxy)pyridin-2-yl)-2-fluorobenzyl)-1-(2-methoxy-3-(methylamino)-3-oxopropyl)-1H-benzo[d]imidazole-6-carboxylic acid] | 4.9 | 7 | 
12 | CNC(=O)C(Cn1c(Cc2ccc(-c3cccc(OCc4ccc(C#N)cc4F)n3)cc2F)nc2ccc(C(=O)O)cc21)OC (single isomer, unassigned) [Example 337, 2-(4-(6-((4-cyano-2-fluorobenzyl)oxy)pyridin-2-yl)-2-fluorobenzyl)-1-(2-methoxy-3-(methylamino)-3-oxopropyl)-1H-benzo[d]imidazole-6-carboxylic acid] | 13.7 | 4.83 | 
13 | COC(Cn1c(Cc2ccc(-c3cccc(OCc4ccc(C#N)cc4F)n3)cc2F)nc2ccc(C(=O)O)cc21)C(=O)Nc1nccs1 (single isomer, unassigned) [Example 338, 2-(4-(6-((4-cyano-2-fluorobenzyl)oxy)pyridin-2-yl)-2-fluorobenzyl)-1-(2-methoxy-3-oxo-3-(thiazol-2-ylamino)propyl)-1H-benzo[d]imidazole-6-carboxylic acid] | 2510 | 13 | 
14 | COC(CN)Cn1c(Cc2ccc(-c3cccc(OCc4ccc(C#N)cc4F)n3)cc2F)nc2ccc(C(=O)O)cc21 (single isomer, unassigned) [Example 339, 1-(3-amino-2-methoxypropyl)-2-(4-(6-((4-cyano-2-fluorobenzyl)oxy)pyridin-2-yl)-2-fluorobenzyl)-1H-benzo[d]imidazole-6-carboxylic acid] | 566 | <1.83 | 
15 | COC(CN)Cn1c(Cc2ccc(-c3cccc(OCc4ccc(C#N)cc4F)n3)cc2F)nc2ccc(C(=O)O)cc21 (single isomer, unassigned) [Example 340, 1-(3-amino-2-methoxypropyl)-2-(4-(6-((4-cyano-2-fluorobenzyl)oxy)pyridin-2-yl)-2-fluorobenzyl)-1H-benzo[d]imidazole-6-carboxylic acid] | 44.1 | <1.83 | 
16 | COC(CNC(C)=O)Cn1c(Cc2ccc(-c3cccc(OCc4ccc(C#N)cc4F)n3)cc2F)nc2ccc(C(=O)O)cc21 (single isomer, unassigned) [Example 341, 1-(3-acetamido-2-methoxypropyl)-2-(4-(6-((4-cyano-2-fluorobenzyl)oxy)pyridin-2-yl)-2-fluorobenzyl)-1H-benzo[d]imidazole-6-carboxylic acid] | 19.7 | 5.67 | 
17 | COC(CNC(C)=O)Cn1c(Cc2ccc(-c3cccc(OCc4ccc(C#N)cc4F)n3)cc2F)nc2ccc(C(=O)O)cc21 (single isomer, unassigned) [Example 342, 1-(3-acetamido-2-methoxypropyl)-2-(4-(6-((4-cyano-2-fluorobenzyl)oxy)pyridin-2-yl)-2-fluorobenzyl)-1H-benzo[d]imidazole-6-carboxylic acid] | 3360 | 4 | 
18 | COCCn1c(C(C)c2ccc(-c3cccc(OCc4ccc(C#N)cc4F)n3)cc2)nc2ccc(C(=O)O)cc21 (single isomer, unassigned) [Example 418, 2-(1-(4-(6-((4-cyano-2-fluorobenzyl)oxy)pyridin-2-yl)phenyl)ethyl)-1-(2-methoxyethyl)-1H-benzo[d]imidazole-6-carboxylic acid] | 18.3 | 4.83 | 
19 | CC(=O)N1CC[C@@H]1Cn1c(Cc2cc(F)c(-c3cccc(OCc4ccc(C#N)cc4F)n3)cc2F)nc2ccc(C(=O)O)cc21 (single isomer, unassigned) [Example 689] |  | 5.17 | 0.56
20 | N#Cc1ccc(COc2cccc(-c3cc(F)c(Cc4nc5ccc(C(=O)O)cc5n4C[C@@H]4CCO4)cc3F)n2)c(F)c1 (single isomer, unassigned) [Example 757] | 0.03 | 4.33 | 
21 | CO[C@H]1COC[C@H]1n1c(Cc2cc(F)c(-c3cccc(OCc4ccc(C#N)cc4F)n3)cc2F)nc2ccc(C(=O)O)cc21 (single isomer, unassigned) [Example 890, 2-(4-(6-((4-cyano-2-fluorobenzyl)oxy)pyridin-2-yl)-2,5-difluorobenzyl)-1-(cis-4-methoxytetrahydrofuran-3-yl)-1H-benzo[d]imidazole-6-carboxylic acid] | 0.49 | 5.17 | 
22 | CO[C@H]1COC[C@H]1n1c(Cc2cc(F)c(-c3cccc(OCc4ccc(C#N)cc4F)n3)cc2F)nc2ccc(C(=O)O)cc21 (single isomer, unassigned) [Example 891, 2-(4-(6-((4-cyano-2-fluorobenzyl)oxy)pyridin-2-yl)-2,5-difluorobenzyl)-1-(cis-4-methoxytetrahydrofuran-3-yl)-1H-benzo[d]imidazole-6-carboxylic acid] | 0.25 | 6.67 | 
